In patent US20250197831A1, “LACTASE SOLUTION” (GODO SHUSEI CO., LTD., priority 2021, published 2025):
Where a name gives a salt, the structure may show the parent alone.

Tests used:
[1] = Filter permeability test of the lactase solution (slope −a of flux vs permeate); assay type: physicochemical; conditions: for Slope (−a) Before Shaking: immediately after preparation; for Slope (−a) After Shaking: shaken at 20° C., 30 mm, 100 spm, 1 hour
Procedure: The detailed conditions in this example of the filter permeability test will be described in detail below.
The following operation was performed in an environment of 5 to 15° C. • 1. A measuring apparatus, a lactase solution sample, and distilled water were cooled to the test environment temperature. • 2. The lactase solution sample was diluted with distilled water or concentrated by ultrafiltration to adjust the lactase activity to 16,000 to 17,500 U/g and mixed well. • 3. In the test, one in which a 25 nun stainless steel filter holder (manufactured by PALL Corporation, product number 1209 (effective membrane area: 3.7 cm^2)) is connected to a stainless steel holder with a 47 mm tank (Advantec Toyo Kaisha, Ltd., product name “KST-47”) was used as an apparatus. A sample permeating portion in the filter holder is configured to include an O-ring, a membrane, a support screen, and an underdrain disc from the measurement sample inlet side (in the test of the present invention, the filter of the stainless steel holder with the tank and the parts of the filter bolding portion (the support screen and the support thereof) were not attached). As the membrane, DURAPORE (product name) (pore diameter: 0.22 μm, φ25 mm, made of hydrophilic PVDF) manufactured by Merck Millipore was used, and as the support screen, Type 316 stainless steel attached to the filter holder was used. In addition, in order to adjust the permeation rate, four circular label stickers (manufactured by A-One Co., Ltd., product name A-one color label 07010) having a diameter of 0.9 cm were stuck symmetrically to an upper portion of the support screen (measurement sample inlet side) (effective membrane area: 1.26 cm^2), and a membrane filter (pore diameter: 0.22 μm) was set. The membrane was rinsed with a 50% glycerin aqueous solution and attached to the stainless steel filter holder. • 4. The lactase solution sample (sample) diluted in 2. was charged into the stainless steel holder with the tank. • 5. A pressure of 0.2 MPa was applied to the stainless steel holder with the tank using an air compressor (manufactured by Yaezaki Kuatsu Co., Ltd., product name “KAPSEL-CON YC-3R” or “PC4-15HLM”), and the enzyme solution was pumped. The permeate was received in a container such as a beaker, the amount of the permeate was recorded every 10 seconds, and (1) the permeation amount (permeate (kg/m^2)) and (2) the permeation rate (flux (kg/min×m^2)) per square meter of the membrane were determined by the following method. In addition, the slope a of an approximate curve y=ax+b obtained when (1) is plotted on the x axis and (2) is plotted on the y axis was determined.
Permeate (kg/m^2)=weight (g) of product that permeated at point n/(membrane radius (mm))×membrane radius (mm)×circumference ratio)(m^2)×1000 (1)
Flux (kg/min×m^2)=(permeate at point n−permeate at point (n−1))/(permeation time (min) at point n−permeation time (min) at point (n−1)) (2) • *n indicates a measurement point. In order to record the permeation amount for every 10 seconds, for example, when the point n is for the permeation amount or permeate at the time of permeation for 10 seconds, the point (n−1) is for the permeation amount of permeate at the time of permeation for 0 seconds.
(§1) A predetermined amount of a given additive was added to GODO-YNL2LS, and the slope (−a) showing filter permeability and the residual activity of lactase activity were measured.
Each lactase solution was obtained by adding the additive shown in the table in a predetermined amount to 60,000 U/g GODO-YNL2LS. […] The lactase activity of each lactase solution after storage at 50° C. for 3 days was measured.

lactase = target: T1, lactase (Kluyveromyces lactis, UniProt P00723); experiment: Residual activity of lactase activity after storage; assay type: physicochemical; conditions: for Residual Activity: storage at 50° C. for 3 days; for residual activity of lactase activity after storage (storage stability test): 0.005% and 0.01% in 60,000 U/g lactase solution, stored at 12° C. for 30 days
T1 construct: purchased GODO SHUSEI CO., LTD; GODO-YNL2LS
Procedure: In the following examples and the like, commercially available GODO-YNL2LS (manufactured by GODO SHUSEI CO., LTD.) was used as the lactase solution. […]
A diluted enzyme solution (0.5 mL) and 0.5 mL of a basic buffer (100 mM phosphate buffer (pH 6.5) containing 0.1 mM manganese chloride) are mixed, and the mixture is preheated at 37° C. for 3 minutes, and then, 1.0 mL of a 1.65 mM O-nitrophenyl-β-D-galactopyranoside (ONPG) aqueous solution is added thereto to cause a reaction at 37° C. for 1 minute. After 2.0 mL of a reaction stop solution (200 mM sodium carbonate) was added thereto, the absorbance at OD 420 nm was measured. One unit (U) is the enzyme activity that increases the OD […] by 1 from the substrate in 10 minutes.
as §1
Each lactase solution was obtained by adding the additive shown in the table in a predetermined amount to 60,000 U/g GODO-YNL2LS. Each lactase solution immediately after preparation was subjected to a filter permeability test and a lactase activity measurement by the above-mentioned methods. […]
In a container, 0.03 g of a saturated fatty acid and 1 mL of a 1 M aqueous sodium hydroxide solution were mixed, and 4 mL of distilled water was added thereto. The mixture was subjected to a saponification treatment in boiling water at 100° C. for 5 minutes, then left to cool to room temperature, and the reaction product was added to 294 g of a total amount of the lactase solution (GODO-YNL2LS) (addition amount: 0.01%). The filtrate obtained by filtering this was subjected to a filter permeability test and a residual activity of lactase activity.
In this example, 108 g of 99% glycerin was mixed with 0.03 g of the unsaturated fatty acid in a container. The mixture was added to 192 g of a total amount of the lactase solution (GODO-YNL2LS) (addition amount: 0.01%). The filtrate obtained by filtering this was subjected to a filter permeability test and a residual activity of lactase activity.

T1 sequence (P00723 whole entry): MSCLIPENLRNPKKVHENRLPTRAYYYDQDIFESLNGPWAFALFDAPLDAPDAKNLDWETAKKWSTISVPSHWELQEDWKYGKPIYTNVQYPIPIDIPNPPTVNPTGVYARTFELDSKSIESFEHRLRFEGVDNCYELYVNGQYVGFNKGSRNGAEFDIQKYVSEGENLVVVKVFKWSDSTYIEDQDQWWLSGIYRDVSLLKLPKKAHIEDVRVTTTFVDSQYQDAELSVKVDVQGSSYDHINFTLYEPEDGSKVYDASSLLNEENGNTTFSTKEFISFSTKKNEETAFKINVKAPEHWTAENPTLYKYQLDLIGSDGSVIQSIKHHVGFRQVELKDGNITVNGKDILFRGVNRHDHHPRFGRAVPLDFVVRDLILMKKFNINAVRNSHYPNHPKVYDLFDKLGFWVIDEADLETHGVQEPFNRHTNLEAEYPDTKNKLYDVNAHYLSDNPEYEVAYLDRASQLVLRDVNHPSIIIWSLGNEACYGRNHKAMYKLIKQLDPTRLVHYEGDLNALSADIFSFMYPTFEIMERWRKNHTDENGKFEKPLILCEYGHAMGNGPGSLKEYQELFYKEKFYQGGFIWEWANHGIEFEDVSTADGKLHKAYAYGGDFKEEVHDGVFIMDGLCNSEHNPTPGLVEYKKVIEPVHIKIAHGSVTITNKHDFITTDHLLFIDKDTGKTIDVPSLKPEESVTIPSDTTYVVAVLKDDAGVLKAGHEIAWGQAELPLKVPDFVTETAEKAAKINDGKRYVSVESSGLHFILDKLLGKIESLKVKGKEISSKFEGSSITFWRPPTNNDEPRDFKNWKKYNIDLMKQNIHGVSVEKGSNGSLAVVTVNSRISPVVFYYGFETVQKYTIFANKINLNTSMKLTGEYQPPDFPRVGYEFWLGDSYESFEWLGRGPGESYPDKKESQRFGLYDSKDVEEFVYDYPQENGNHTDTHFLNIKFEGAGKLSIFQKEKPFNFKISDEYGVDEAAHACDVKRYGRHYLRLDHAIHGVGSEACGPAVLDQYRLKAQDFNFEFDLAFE

In the case of `CCCCCCCCCCCCCC(=O)[O-].[Na+]` [Na Myristate], the “Slope (−a) Before Shaking” value ([1]; additive 0.01 % in GODO-YNL2LS) is reported as 0.0147 and the “Residual Activity” value (lactase; additive 0.01 %) is reported as 70.7%.
With `N[C@@H](CCC(=O)N[C@@H](CS)C(=O)NCC(=O)O)C(=O)O` [Reduced Glutathione] the “Residual Activity” value (lactase; Table 2, addition amount 0.02) was 19.9%.
With `CCCCCCCCCCCC(=O)[O-].[Na+]` [Na Laurate] the “Slope (−a) Before Shaking” value ([1]; additive 0.01 % in GODO-YNL2LS) was 0.0176 and the “Slope (−a) After Shaking” value ([1]; additive 0.01 %) was 0.0590.
With `CCCCCCCCCCCCCCCCCC(=O)[O-].[Na+]` [Na Stearate] the “Slope (−a) Before Shaking” value ([1]; additive 0.01 % in GODO-YNL2LS) was 0.0273, the “Slope (−a) After Shaking” value ([1]; additive 0.01 %) was “deteriorated” and the “Residual Activity” value (lactase; additive 0.01 %) was 61.9%.
In the case of `CCCCCCCC/C=C\CCCCCCCC(=O)[O-].[Na+]` [Na Oleate], the “Slope (−a) Before Shaking” value ([1]; additive 0.005 % in GODO-YNL2LS) is reported as 0.0243, the “Slope (−a) After Shaking” value ([1]; additive 0.005 %) is reported as 0.0216 and the “Slope (−a) Before Shaking” value ([1]; additive 0.1 % in GODO-YNL2LS) is reported as 0.0542. The “Slope (−a) After Shaking” value ([1]; additive 0.1 %) was 0.0405, the “Residual Activity” value (lactase; additive 0.005 %) was 64.3% and the “Residual Activity” value (lactase; additive 0.01 %) was 71.4%.
In the case of `CCCCCCCC/C=C\CCCCCCCC(=O)O` [Oleic Acid], the “Slope (−a) Before Shaking” value ([1]; additive 0.01 % in GODO-YNL2LS) is reported as 0.0272, the “Slope (−a) After Shaking” value ([1]; additive 0.01 %) is reported as 0.0407 and the “residual activity of lactase activity after storage (storage stability test)” value (lactase) is reported as “practical level”. The “Residual Activity” value (lactase; additive 0.01 %) was 72.0%.
In the case of `CCCCCCCCCC(=O)[O-].[Na+]` [Na Decanoate], the “Slope (−a) Before Shaking” value ([1]; additive 0.01 % in GODO-YNL2LS) is reported as 0.0228.
For `C[N+](C)(C)CC(=O)O` [Betaine Hydrochloride], the “Slope Before Shaking” value ([1]; Table 2, addition amount 0.1, immediately after preparation) was 0.0291 and the “Residual Activity” value (lactase; Table 2, addition amount 0.1) was 66.5%.
For `N[C@@H](CS)C(=O)O` [Cysteine], the “Residual Activity” value (lactase; Table 2, addition amount 0.02) was 1.1%.
In the case of `CCCCC/C=C\C/C=C\CCCCCCCC(=O)O` [Linoleic Acid], the “Slope (−a) Before Shaking” value ([1]; additive 0.01 % in GODO-YNL2LS) is reported as 0.0265, the “Slope (−a) After Shaking” value ([1]; additive 0.01 %) is reported as 0.0253 and the “residual activity of lactase activity after storage (storage stability test)” value (lactase) is reported as “practical level”. For the same molecule, the “Residual Activity” value (lactase; additive 0.01 %) was 61.1%.
With `CCCCCCCCCCCCCCCC(=O)[O-].[Na+]` [Na Palmitate] the “Slope (−a) Before Shaking” value ([1]; additive 0.01 % in GODO-YNL2LS) was 0.0200, the “Slope (−a) After Shaking” value ([1]; additive 0.01 %) was “deteriorated” and the “Residual Activity” value (lactase; additive 0.01 %) was 61.5%.
